In ChEMBL document CHEMBL4118098, “Discovery of DS28120313 as a potent orally active hepcidin production inhibitor: Design and optimization of novel 4,6-disubstituted indazole derivatives” (Bioorg Med Chem Lett, 2017):
Each block holds one compound with its values, some of them ahead of it.

Tests used:
[1] = target: Epidermal growth factor receptor (Homo sapiens) (UniProt P00533); experiment: Inhibition of EGFR (unknown origin) at 0.19 uM relative to control
[2] = target: Serine/threonine-protein kinase Nek2 (Homo sapiens) (UniProt P51955); experiment: Inhibition of NEK2 (unknown origin) at 0.19 uM relative to control
Serine/threonine-protein kinase Nek2 (Homo sapiens), sequence (P51955 whole entry): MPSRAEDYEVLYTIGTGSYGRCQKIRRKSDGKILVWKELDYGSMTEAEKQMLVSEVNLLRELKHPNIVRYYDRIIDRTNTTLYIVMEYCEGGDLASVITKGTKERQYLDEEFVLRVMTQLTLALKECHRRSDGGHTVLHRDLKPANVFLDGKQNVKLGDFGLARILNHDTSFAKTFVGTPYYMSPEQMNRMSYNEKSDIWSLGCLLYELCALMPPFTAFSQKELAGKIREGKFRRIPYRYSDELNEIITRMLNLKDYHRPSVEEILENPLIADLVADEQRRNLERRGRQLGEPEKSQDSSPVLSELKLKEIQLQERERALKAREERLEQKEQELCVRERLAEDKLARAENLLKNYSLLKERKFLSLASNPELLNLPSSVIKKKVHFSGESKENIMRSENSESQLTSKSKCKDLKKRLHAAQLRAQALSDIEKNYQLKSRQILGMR

[3] = target: AMP-activated protein kinase, AMPK (Homo sapiens) (UniProt P54646+O43741+P54619+Q9UGJ0+Q9Y478+Q13131+Q9UGI9); experiment: Inhibition of AMPK (unknown origin) at 0.19 uM relative to control; format: protein-complex assay
[4] = target: Dual specificity tyrosine-phosphorylation-regulated kinase 3 (Homo sapiens) (UniProt O43781); experiment: Inhibition of DYRK3 (unknown origin) at 0.19 uM relative to control
Dual specificity tyrosine-phosphorylation-regulated kinase 3 (Homo sapiens), sequence (O43781 whole entry): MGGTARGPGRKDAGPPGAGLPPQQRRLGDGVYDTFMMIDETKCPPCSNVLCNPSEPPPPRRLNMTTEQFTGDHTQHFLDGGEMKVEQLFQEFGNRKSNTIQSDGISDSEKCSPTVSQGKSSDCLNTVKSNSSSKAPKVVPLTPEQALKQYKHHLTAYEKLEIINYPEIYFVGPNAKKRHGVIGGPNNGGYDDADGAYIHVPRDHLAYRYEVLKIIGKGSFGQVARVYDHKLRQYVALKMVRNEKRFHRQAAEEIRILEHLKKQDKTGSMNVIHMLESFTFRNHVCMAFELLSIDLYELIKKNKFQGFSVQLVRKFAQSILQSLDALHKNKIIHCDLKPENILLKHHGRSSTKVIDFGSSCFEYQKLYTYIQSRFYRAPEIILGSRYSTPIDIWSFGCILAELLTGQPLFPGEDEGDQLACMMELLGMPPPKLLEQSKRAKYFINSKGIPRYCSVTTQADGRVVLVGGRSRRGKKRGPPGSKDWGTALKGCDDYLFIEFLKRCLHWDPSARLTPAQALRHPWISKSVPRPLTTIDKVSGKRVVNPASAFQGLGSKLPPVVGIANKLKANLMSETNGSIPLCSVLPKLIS

[5] = test system: Proto-oncogene tyrosine-protein kinase receptor Ret (Homo sapiens), P07949 [V804L]; experiment: Inhibition of Ret V804L mutant (unknown origin) at 0.19 uM relative to control
[6] = target: T1, cGMP-dependent protein kinase 1 (Homo sapiens) (UniProt Q13976); experiment: Inhibition of PKG-alpha (unknown origin) at 0.19 uM relative to control
T1 sequence (whole entry): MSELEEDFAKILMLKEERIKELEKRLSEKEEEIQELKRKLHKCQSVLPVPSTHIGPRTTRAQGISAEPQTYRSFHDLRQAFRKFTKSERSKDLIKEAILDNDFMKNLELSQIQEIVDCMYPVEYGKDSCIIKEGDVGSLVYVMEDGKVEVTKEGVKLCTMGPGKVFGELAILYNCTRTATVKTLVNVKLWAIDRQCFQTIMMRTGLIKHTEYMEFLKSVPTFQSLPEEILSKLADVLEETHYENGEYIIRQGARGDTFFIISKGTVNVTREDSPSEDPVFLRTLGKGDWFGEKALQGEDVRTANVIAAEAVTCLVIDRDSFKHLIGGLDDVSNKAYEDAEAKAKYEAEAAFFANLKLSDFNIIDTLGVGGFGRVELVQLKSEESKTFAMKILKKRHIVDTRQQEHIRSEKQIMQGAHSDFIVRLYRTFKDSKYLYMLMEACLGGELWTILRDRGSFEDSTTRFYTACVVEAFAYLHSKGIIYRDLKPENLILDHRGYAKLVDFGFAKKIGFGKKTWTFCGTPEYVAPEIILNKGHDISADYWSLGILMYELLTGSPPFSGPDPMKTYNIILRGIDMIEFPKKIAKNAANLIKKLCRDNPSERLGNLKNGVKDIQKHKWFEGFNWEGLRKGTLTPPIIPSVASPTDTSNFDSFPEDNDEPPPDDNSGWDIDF

[7] = target: Cyclin-dependent kinase 2 (Homo sapiens) (UniProt P24941); experiment: Inhibition of CDK2 (unknown origin) at 0.19 uM relative to control
[8] = target: Mitogen-activated protein kinase 13 (Homo sapiens) (UniProt O15264); experiment: Inhibition of p38-delta (unknown origin) at 0.19 uM relative to control
[9] = test system: Tyrosine-protein kinase ABL1 (Homo sapiens), P00519 [E255K]; experiment: Inhibition of ABL1 E255K mutant (unknown origin) at 0.19 uM relative to control
[10] = target: Serine/threonine-protein kinase DCLK2 (Homo sapiens) (UniProt Q8N568); experiment: Inhibition of DCAMKL2 (unknown origin) at 0.19 uM relative to control
Serine/threonine-protein kinase DCLK2 (Homo sapiens), sequence (Q8N568 whole entry): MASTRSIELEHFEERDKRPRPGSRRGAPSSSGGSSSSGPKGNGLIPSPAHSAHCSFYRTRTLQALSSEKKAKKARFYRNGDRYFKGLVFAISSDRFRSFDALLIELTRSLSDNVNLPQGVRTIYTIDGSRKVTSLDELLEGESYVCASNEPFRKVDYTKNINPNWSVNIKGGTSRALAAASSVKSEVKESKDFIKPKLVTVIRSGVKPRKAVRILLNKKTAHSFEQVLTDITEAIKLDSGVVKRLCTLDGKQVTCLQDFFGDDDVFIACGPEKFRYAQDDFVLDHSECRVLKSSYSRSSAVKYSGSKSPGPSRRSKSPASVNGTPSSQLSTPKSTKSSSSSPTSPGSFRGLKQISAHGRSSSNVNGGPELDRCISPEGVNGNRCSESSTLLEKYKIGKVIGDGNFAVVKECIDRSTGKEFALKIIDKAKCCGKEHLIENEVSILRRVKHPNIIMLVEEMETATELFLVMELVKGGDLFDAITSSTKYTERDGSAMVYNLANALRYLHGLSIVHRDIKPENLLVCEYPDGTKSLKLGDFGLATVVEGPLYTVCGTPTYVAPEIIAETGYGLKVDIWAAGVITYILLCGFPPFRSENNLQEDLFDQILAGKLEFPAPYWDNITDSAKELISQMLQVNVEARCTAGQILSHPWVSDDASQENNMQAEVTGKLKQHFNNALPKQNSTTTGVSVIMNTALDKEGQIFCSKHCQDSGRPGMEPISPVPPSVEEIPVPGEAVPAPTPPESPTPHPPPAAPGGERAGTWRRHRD

[11] = target: T1, cGMP-dependent protein kinase 1 (Homo sapiens); experiment: Inhibition of PKG-alpha (unknown origin) at 0.164 uM relative to control
[12] = target: Tyrosine-protein kinase Fes/Fps (Homo sapiens) (UniProt P07332); experiment: Inhibition of FES (unknown origin) at 0.164 uM relative to control
Tyrosine-protein kinase Fes/Fps (Homo sapiens), sequence (P07332 whole entry): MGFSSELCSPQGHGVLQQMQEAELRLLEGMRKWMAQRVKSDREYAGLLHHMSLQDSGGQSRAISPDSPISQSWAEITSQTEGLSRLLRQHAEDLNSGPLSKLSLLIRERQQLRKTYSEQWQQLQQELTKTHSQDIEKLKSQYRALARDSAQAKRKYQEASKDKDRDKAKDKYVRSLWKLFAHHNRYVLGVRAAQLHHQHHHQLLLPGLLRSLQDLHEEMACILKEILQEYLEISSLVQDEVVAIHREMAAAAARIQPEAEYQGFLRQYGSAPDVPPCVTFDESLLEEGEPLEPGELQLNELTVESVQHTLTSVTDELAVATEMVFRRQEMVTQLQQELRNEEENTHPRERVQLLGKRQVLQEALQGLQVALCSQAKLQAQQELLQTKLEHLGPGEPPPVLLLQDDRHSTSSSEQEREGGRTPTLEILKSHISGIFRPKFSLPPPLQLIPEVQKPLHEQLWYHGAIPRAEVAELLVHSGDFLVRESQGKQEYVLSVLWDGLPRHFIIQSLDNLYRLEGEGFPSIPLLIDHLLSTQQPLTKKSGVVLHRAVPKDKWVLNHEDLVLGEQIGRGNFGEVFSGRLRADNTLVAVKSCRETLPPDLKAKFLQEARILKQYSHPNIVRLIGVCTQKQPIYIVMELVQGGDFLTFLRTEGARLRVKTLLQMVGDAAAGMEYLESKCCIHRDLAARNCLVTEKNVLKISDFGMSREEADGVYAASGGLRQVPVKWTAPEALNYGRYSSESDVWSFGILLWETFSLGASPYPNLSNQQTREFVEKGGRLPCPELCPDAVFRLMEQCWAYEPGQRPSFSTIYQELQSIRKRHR

[13] = target: Dual specificity tyrosine-phosphorylation-regulated kinase 1B (Homo sapiens) (UniProt Q9Y463); experiment: Inhibition of DYRK1B (unknown origin) at 0.164 uM relative to control
Dual specificity tyrosine-phosphorylation-regulated kinase 1B (Homo sapiens), sequence (Q9Y463 whole entry, looked up): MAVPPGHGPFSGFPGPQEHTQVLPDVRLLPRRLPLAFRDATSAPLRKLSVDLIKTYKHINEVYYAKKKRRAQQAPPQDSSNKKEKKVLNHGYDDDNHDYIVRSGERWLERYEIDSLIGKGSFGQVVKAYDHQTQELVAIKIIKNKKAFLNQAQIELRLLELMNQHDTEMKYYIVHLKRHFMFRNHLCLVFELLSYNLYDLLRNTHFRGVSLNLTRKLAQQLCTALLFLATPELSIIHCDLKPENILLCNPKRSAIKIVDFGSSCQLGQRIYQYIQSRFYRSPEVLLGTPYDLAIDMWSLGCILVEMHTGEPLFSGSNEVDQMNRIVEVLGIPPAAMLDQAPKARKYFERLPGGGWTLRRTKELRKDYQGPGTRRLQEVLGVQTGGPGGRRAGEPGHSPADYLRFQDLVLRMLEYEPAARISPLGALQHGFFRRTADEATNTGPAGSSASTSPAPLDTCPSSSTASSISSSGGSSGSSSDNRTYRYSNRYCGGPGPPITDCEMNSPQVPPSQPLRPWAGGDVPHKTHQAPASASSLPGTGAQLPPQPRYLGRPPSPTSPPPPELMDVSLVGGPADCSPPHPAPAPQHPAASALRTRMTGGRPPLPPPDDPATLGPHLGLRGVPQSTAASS

[14] = target: Mitogen-activated protein kinase 3 (Homo sapiens) (UniProt P27361); experiment: Inhibition of Erk1 (unknown origin) at 0.164 uM relative to control
[15] = target: T2, MAP kinase-activated protein kinase 5 (Homo sapiens) (UniProt Q8IW41); experiment: Inhibition of PRAK (unknown origin) at 0.164 uM relative to control
T2 sequence (whole entry): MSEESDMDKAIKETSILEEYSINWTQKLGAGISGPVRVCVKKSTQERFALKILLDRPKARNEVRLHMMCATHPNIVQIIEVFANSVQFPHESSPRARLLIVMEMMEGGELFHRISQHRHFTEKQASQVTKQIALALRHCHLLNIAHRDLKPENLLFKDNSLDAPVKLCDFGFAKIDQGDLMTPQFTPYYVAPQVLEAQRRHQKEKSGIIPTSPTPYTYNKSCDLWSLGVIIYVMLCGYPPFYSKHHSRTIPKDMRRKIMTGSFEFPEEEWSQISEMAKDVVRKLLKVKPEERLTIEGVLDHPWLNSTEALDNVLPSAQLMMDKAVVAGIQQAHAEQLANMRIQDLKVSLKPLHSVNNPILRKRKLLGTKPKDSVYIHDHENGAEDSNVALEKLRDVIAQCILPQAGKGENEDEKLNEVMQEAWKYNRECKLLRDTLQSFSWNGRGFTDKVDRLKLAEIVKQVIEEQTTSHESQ

[16] = target: Ephrin type-A receptor 1 (Homo sapiens) (UniProt P21709); experiment: Inhibition of EPHA1 (unknown origin) at 0.164 uM relative to control
[17] = test system: Proto-oncogene tyrosine-protein kinase receptor Ret (Homo sapiens), P07949 [M918T]; experiment: Inhibition of RET M918T mutant (unknown origin) at 0.164 uM relative to control
[18] = target: RAC-alpha serine/threonine-protein kinase (Homo sapiens) (UniProt P31749); experiment: Inhibition of AKT1 (unknown origin) at 0.164 uM relative to control
RAC-alpha serine/threonine-protein kinase (Homo sapiens), sequence (P31749 whole entry): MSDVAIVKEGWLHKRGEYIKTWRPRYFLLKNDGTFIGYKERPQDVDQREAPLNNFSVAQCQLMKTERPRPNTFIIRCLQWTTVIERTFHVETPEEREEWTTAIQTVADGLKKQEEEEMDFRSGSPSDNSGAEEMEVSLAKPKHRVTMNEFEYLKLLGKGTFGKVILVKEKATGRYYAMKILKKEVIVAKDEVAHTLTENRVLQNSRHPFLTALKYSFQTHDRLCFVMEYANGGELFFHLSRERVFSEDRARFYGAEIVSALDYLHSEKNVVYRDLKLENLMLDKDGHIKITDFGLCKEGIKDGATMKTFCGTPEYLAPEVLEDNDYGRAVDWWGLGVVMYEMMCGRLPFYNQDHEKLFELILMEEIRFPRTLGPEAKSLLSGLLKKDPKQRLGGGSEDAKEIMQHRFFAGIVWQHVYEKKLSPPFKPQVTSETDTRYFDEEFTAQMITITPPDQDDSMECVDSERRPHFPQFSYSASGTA

[19] = test system: Tyrosine-protein kinase ABL1 (Homo sapiens), P00519 [Q252H]; experiment: Inhibition of Abl Q252H mutant (unknown origin) at 0.164 uM relative to control
[20] = target: Ribosomal protein S6 kinase alpha-5 (Homo sapiens) (UniProt O75582); experiment: Inhibition of MSK1 (unknown origin) at 0.164 uM relative to control
Ribosomal protein S6 kinase alpha-5 (Homo sapiens), sequence (O75582 whole entry, looked up): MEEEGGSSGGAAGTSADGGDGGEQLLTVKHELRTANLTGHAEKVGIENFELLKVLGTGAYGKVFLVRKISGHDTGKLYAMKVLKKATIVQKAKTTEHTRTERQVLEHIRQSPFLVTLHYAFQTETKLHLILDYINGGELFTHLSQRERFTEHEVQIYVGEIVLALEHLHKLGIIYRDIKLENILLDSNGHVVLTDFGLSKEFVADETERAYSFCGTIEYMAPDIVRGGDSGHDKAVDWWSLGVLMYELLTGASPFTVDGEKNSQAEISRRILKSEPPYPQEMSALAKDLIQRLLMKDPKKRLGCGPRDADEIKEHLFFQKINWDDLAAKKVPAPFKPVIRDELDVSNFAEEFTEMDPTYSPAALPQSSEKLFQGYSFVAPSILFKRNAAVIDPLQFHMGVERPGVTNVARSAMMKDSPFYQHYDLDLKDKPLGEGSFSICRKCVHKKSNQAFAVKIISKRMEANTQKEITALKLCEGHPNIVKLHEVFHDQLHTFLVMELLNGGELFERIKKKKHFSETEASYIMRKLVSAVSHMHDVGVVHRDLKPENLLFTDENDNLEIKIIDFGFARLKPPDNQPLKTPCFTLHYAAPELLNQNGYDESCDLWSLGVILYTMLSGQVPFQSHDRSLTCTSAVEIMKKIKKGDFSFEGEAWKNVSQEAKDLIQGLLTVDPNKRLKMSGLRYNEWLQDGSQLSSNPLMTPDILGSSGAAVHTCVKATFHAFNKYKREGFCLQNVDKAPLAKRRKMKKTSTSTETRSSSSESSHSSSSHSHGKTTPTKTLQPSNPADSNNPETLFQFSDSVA

[21] = target: Hepatocyte growth factor receptor (Homo sapiens) (UniProt P08581); experiment: Inhibition of MET (unknown origin) at 0.164 uM relative to control
[22] = target: Aurora kinase A (Homo sapiens) (UniProt O14965); experiment: Inhibition of AurA (unknown origin) at 0.164 uM relative to control
Aurora kinase A (Homo sapiens), sequence (O14965 whole entry): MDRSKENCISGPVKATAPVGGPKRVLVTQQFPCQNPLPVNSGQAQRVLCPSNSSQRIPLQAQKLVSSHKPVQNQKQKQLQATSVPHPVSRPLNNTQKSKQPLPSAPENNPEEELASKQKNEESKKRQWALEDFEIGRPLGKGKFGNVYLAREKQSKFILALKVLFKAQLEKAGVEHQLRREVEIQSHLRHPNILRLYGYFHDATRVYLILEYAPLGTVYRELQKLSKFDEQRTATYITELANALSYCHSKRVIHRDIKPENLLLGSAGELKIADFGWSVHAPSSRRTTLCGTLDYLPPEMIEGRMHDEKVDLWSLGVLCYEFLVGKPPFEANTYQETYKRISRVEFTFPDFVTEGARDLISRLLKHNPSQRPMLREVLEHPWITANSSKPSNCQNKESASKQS

[23] = target: Serine/threonine-protein kinase DCLK2 (Homo sapiens) (UniProt Q8N568); experiment: Inhibition of DCAMKL2 (unknown origin) at 0.164 uM relative to control
[24] = target: Ephrin type-B receptor 3 (Homo sapiens) (UniProt P54753); experiment: Inhibition of EPHB3 (unknown origin) at 0.164 uM relative to control
[25] = target: T2, MAP kinase-activated protein kinase 5 (Homo sapiens); experiment: Inhibition of PRAK (unknown origin) at 0.45 uM relative to control
[26] = target: Ribosomal protein S6 kinase alpha-4 (Homo sapiens) (UniProt O75676); experiment: Inhibition of MSK2 (unknown origin) at 0.45 uM relative to control

inhibition [1]: -6.7%
inhibition [2]: 12%
inhibition [3]: 38.7%
inhibition [4]: 1.7%
inhibition [5]: 7%
inhibition [6]: -3.7%
inhibition [7]: -1.7%
inhibition [8]: 4.7%
inhibition [9]: 64.7%
inhibition [10]: -1.7%
SMILES: Cc1[nH]nc(C2CC2)c1-c1ccc2c(-c3ccc(N4CCN(C)CC4)nc3)n[nH]c2c1

inhibition [11]: 0.7%
inhibition [12]: 11.7%
inhibition [13]: 0.3%
inhibition [14]: 7%
inhibition [15]: 3.3%
inhibition [16]: 1%
inhibition [17]: 6.7%
inhibition [18]: 9.3%
inhibition [19]: 0.3%
inhibition [20]: 7.7%
inhibition [21]: 0%
inhibition [22]: 6.7%
inhibition [23]: -1.3%
inhibition [24]: 0.7%
SMILES: COC(=O)Nc1cc(-c2c(C3CC3)n[nH]c2C)cc2[nH]ncc12

inhibition [25]: -1.7%
inhibition [26]: -3.3%
SMILES: Cc1n[nH]c(C)c1-c1ccc2c(NC(=O)c3ccc(N4CCN(C)CC4)cc3)n[nH]c2c1
